Data on 44 molecules can be found in patent publication US9346761B2, “Arginine methyltransferase inhibitors and uses thereof” (Epizyme, Inc., priority 2013, dated 2016).

As usually defined, the pIC50 is the IC50 on a negative log10 scale, so that one unit is a factor of ten. Low readings indicate a large IC50, high ones a small IC50.

SMILES strings stand for the structures. pIC50: −log10 of the molar value. Where a name gives a salt, the structure may show the parent alone.

The assay has as its target T1, Human CARM1 (PRMT4) (Homo sapiens, UniProt Q86X55).
T1 construct: Flag-CARM1-His was eluted with 200 ug/ml FLAG peptide in buffer A; made in house; host or cells: HEK 293F cells (BacMam virus, pFastBacMam)
T1 sequence (Q86X55 with tags, fused parts or gaps isoform Q86X55-1): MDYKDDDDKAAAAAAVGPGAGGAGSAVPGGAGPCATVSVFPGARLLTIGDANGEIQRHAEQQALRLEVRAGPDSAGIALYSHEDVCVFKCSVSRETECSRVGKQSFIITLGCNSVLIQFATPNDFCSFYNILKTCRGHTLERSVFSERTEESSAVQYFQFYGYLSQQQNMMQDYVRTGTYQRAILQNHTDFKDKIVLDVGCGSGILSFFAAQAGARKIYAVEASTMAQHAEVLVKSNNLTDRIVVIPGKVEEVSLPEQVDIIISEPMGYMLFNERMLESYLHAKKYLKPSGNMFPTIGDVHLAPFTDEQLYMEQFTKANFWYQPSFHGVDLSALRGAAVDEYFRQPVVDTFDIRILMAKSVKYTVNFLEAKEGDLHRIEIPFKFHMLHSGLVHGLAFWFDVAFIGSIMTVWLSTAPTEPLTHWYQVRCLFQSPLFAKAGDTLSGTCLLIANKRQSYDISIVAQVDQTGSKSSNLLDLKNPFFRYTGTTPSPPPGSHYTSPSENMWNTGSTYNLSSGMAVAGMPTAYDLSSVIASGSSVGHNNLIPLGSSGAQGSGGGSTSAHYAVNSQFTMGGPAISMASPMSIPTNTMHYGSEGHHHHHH
Description: CARM1 biochemical assay (3H-SAM Flashplate, peptide substrate). The source says:
General Materials. S-adenosylmethionine (SAM), S-adenosylhomocysteine (SAH), bicine, Tween20, dimethylsulfoxide (DMSO), bovine skin gelatin (BSG), sodium butyrate and Tris(2-carboxyethyl)phosphine hydrochloride solution (TCEP) were purchased from Sigma-Aldrich at the highest level of purity possible. ^3H-SAM was purchase from American Radiolabeled Chemicals with a specific activity of 80 Ci/mmol. 384-well streptavidin Flashplates were purchased from PerkinElmer.
Substrates. Peptide representative of human histone H3 residues 16-30 was synthesized with an N-terminal linker-affinity tag motif and a C-terminal amide cap by 21st Century Biochemicals.
Protein Expression. Recombinant baculovirus were generated according to Bac-to-Bac kit instructions (Life Technologies). […] Infections were carried out at 37° C. for 48 hours, harvested by centrifugation, and stored at −80° C. for purification.
Protein Purification. […] Column was washed with 500 mM NaCl in buffer A and Flag-CARM1-His was eluted with 200 ug/ml FLAG peptide in buffer A. Pooled fractions were dialyzed in 20 mM Tris, 150 mM NaCl, 5% glycerol and 1 mM DTT, pH 7.8.
General Procedure for CARM1 Enzyme Assays on Peptide Substrates. The assays were all performed in a buffer consisting of 20 mM Bicine (pH=7.6), 1 mM TCEP, 0.005% BSG, and 0.002% Tween 20, prepared on the day of use. […] DMSO (1 ul) was added to Columns 11, 12, 23, 24, rows A-H for the maximum signal control and 1 ul of SAH, a known product and inhibitor of CARM1, was added to columns 11, 12, 23, 24, rows I-P for the minimum signal control. A cocktail (40 ul) containing the CARM1 enzyme was added by Multidrop Combi (Thermo-Fisher). The compounds were allowed to incubate with CARM1 for 30 min at room temperature, then a cocktail (10 ul) containing ^3H-SAM and peptide was added to initiate the reaction (final volume=51 ul). […] The assays were stopped by the addition of non-radiolabeled SAM (10 ul) to a final concentration of 300 uM, which dilutes the ^3H-SAM to a level where its incorporation into the peptide substrate is no longer detectable. 50 ul of the reaction in the 384-well polypropylene plate was then transferred to a 384-well Flashplate and the biotinylated peptides were allowed to bind to the streptavidin surface for at least 1 hour before being washed once with 0.1% Tween20 in a Biotek ELx405 plate washer. The plates were then read in a PerkinElmer TopCount plate reader to measure the quantity of ^3H-labeled peptide bound to the Flashplate surface, measured as disintegrations per minute (dpm) or alternatively, referred to as counts per minute (cpm).
Where dpm=disintegrations per minute, cmpd=signal in assay well, and min and max are the respective minimum and maximum signal controls.
Where top and bottom are the normally allowed to float, but may be fixed at 100 or 0 respectively in a 3-parameter fit. The Hill Coefficient normally allowed to float but may also be fixed at 1 in a 3-parameter fit. Y is the % inhibition and X is the compound concentration.
Consider `CCn1ncc(CN(C)CCNC)c1-c1ccc(OC(C)C)cc1` [Compound 252], for which the pIC50 was 6.00 to 7.00.
To `CNCCN(C)Cc1cn[nH]c1-c1cc(F)cc(F)c1` [Compound 18] belongs 6.00 to 7.00; to `CNCCN(C)Cc1cnn(CCCC(O)CO)c1-c1ccc(F)cc1` (centres unmarked) [Compound 31], 5.52 to 6.00; to `CNCCN(C)Cc1cnn(C2CCCC2)c1-c1ccc(OC(C)C)cc1` [Compound 255], 5.52 to 6.00.
The same measure for `CNCCN(C)Cc1cn(CC(N)=O)nc1-c1ccc(OC(C)C)cc1` [Compound 251]: 5.52 to 6.00.
The molecule `CCNC(=O)c1cccc(-c2n[nH]cc2CN(C)CCNC)c1` [Compound 43] had a pIC50 of 5.00 to 5.52.
On to `CNCCN(C)Cc1cnn(C2CC2)c1-c1ccc(F)cc1` [Compound 14], for which the pIC50 is 6.00 to 7.00.
The same measure for `CNCCN(C)Cc1cn(C2CCOC2)nc1-c1ccc(OC(C)C)cc1` (centres unmarked) [Compound 215]: 6.00 to 7.00.
With `CNCCN(C)Cc1c[nH]nc1-c1ccc(CO)cc1` [Compound 28], the pIC50 is 6.00 to 7.00.
The same measure for `CNCCN(C)Cc1cn(Cc2ccccc2)nc1-c1ccc(OC(C)C)cc1` [Compound 217]: 6.00 to 7.00; for `CNCCN(C)Cc1cn(C2CC2)nc1-c1ccc(F)cc1` [Compound 13]: 5.52 to 6.00; for `CNCCN(C)Cc1c[nH]nc1-c1ccc(OC)cc1` [Compound 25]: 5.52 to 6.00.
To `CNCCN(C)Cc1cn(C2CCCCC2)nc1-c1ccc(OC(C)C)cc1` [Compound 256] belongs 6.00 to 7.00.
In the case of `CNCCN(C)Cc1cn(C2CCC2)nc1-c1ccc(OC(C)C)cc1` [Compound 254, N1-((1-cyclobutyl-3-(4-isopropoxyphenyl)-1H-pyrazol-4-yl)methyl)-N1,N2-dimethylethane-1,2-diamine hydrochloride], the pIC50 is 6.00 to 7.00.
The same measure for `CNCCN(C)Cc1c[nH]nc1-c1cccc(O)c1` [Compound 26]: 5.52 to 6.00; for `CNCCN(C)Cc1cnn(C2CCOC2)c1-c1ccc(OC(C)C)cc1` (centres unmarked) [Compound 216]: 6.00 to 7.00.
The same measure for `CCCc1ccc(-c2n[nH]cc2CN(C)CCNC)cc1` [Compound 20]: 6.00 to 7.00; for `C=CCn1ncc(CN(C)CCNC)c1-c1ccc(OC(C)C)cc1` [Compound 219]: 6.00 to 7.00.
In turn, `CNCCN(C)Cc1c[nH]nc1-c1ccc(N)cc1` [Compound 33] gave a pIC50 of 5.52 to 6.00.
For the molecule `CNCCN(C)Cc1c[nH]nc1-c1cccc(OC)c1` [Compound 24], the pIC50 was 5.52 to 6.00.
To `CNCCN(C)Cc1cn(C)nc1-c1ccc(OC(C)C)cc1` [Compound 243, N1-((3-(4-isopropoxyphenyl)-1-methyl-1H-pyrazol-4-yl)methyl)-N1,N2-dimethylethane-1,2-diamine] belongs 6.00 to 7.00; to `CNCCN(C)Cc1c[nH]nc1-c1cccc(C#N)c1` [Compound 22], 5.52 to 6.00.
The same measure for `CNCCN(C)Cc1cnn(C(C)C)c1-c1ccc(F)cc1` [Compound 16]: 5.00 to 5.52.
To `CNCCN(C)Cc1cn(Cc2cccnc2)nc1-c1ccc(OC(C)C)cc1` [Compound 246] belongs 5.52 to 6.00; to `CNCCN(C)Cc1cnn(CC(=O)OC)c1-c1ccc(OC(C)C)cc1` [Compound 249], 5.00 to 5.52; to `CNCCN(C)Cc1cn(CCOC)nc1-c1ccc(OC(C)C)cc1` [Compound 253, N1-((3-(4-isopropoxyphenyl)-1-(2-methoxyethyl)-1H-pyrazol-4-yl)methyl)-N1,N2-dimethylethane-1,2-diamine hydrochloride], 5.52 to 6.00.
The molecule `CNCCN(C)Cc1c[nH]nc1-c1ccc(O)cc1` [Compound 27] gave a negative logarithm of the IC50 (pIC50) of 5.52 to 6.00.
The same measure for `CNCCN(C)Cc1c[nH]nc1-c1ccc(Oc2ccccc2)cc1` [Compound 37]: more than 7.00; for `CNCCN(C)Cc1c[nH]nc1-c1ccc(C)cc1C` [Compound 29]: 5.00 to 5.52.
`C=CCn1cc(CN(C)CCNC)c(-c2ccc(OC(C)C)cc2)n1` [Compound 218] gave a pIC50 of 6.00 to 7.00.
The same measure for `CNCCN(C)Cc1c[nH]nc1-c1ccccc1OC(F)(F)F` [Compound 40]: less than 5.00; for `CNCCN(C)Cc1c[nH]nc1-c1cccc([N+](=O)[O-])c1` [Compound 21]: 5.52 to 6.00; for `CNCCN(C)Cc1c[nH]nc1-c1ccccc1C(F)(F)F` [Compound 38]: less than 5.00.
The same measure for `CNCCN(C)Cc1cn(C2CCCC2)nc1-c1ccc(OC(C)C)cc1` [Compound 214]: 6.00 to 7.00; for `CNCCN(C)Cc1cn(C(C)C)nc1-c1ccc(F)cc1` [Compound 15]: 5.00 to 5.52.
To `CCn1cc(CN(C)CCNC)c(-c2ccc(OC(C)C)cc2)n1` [Compound 213] belongs 6.00 to 7.00; to `CNCCN(C)Cc1cn(Cc2ccccn2)nc1-c1ccc(OC(C)C)cc1` [Compound 247], 5.52 to 6.00; to `CNCCN(C)Cc1c[nH]nc1-c1ccccc1OC` [Compound 23], 5.52 to 6.00.
`CNCCN(C)Cc1cn(CC(=O)OC)nc1-c1ccc(OC(C)C)cc1` [Compound 248] gave a pIC50 of 5.00 to 5.52.
To `CNCCN(C)Cc1cn[nH]c1-c1ccc(C#N)cc1` [Compound 17] belongs 5.52 to 6.00; to `CNCCN(C)Cc1cn(CCCC(O)CO)nc1-c1ccc(F)cc1` (centres unmarked) [Compound 30], 5.00 to 5.52; to `C=C(C)C(=O)Nc1cccc(-c2[nH]ncc2CN(C)CCNC)c1` [Compound 257], less than 5.00.
The same measure for `C=CC(=O)Nc1cccc(-c2[nH]ncc2CN(C)CCNC)c1` [Compound 258]: 5.52 to 6.00; for `CNCCN(C)Cc1cn(CC(=O)O)nc1-c1ccc(OC(C)C)cc1` [Compound 250]: less than 5.00.
